Test results taken from patent US20080085884A1, “Melanin Concentrating Hormone Receptor-1 Antagonist Pyridinones” (Pfizer Inc, priority 2006, published 2008).
Like-named read-outs stand apart in the source and are kept apart here.

Biological target: T1, human MCHR1 (Homo sapiens, UniProt Q99705)
T1 construct: host or cells: CHO
Assay: Cyclic AMP assay (MCHR-1 functional antagonism)
Format: cell-based
Conditions: CHO cells stably expressing human MCHR1, cAMP accumulation with 25 uM forskolin and 0.2 nM MCH, 90 min, Ki from IC50 by Cheng-Prusoff
Protocol: CHO cell lines stably expressing the human MCHR1 (Euroscreen, Brussels, Belgium) were maintained in DMEM containing Glutamax (Invitrogen, Carlsbad, Calif.), 10% FBS, 400 ug/ml Geneticin.
Cyclic AMP assays. CHO cells stably expressing the human MCHR1 receptors were collected and resuspended at a density of 4.0×10^6 cells/ml in F12 (Hams) media and seeded (20,000 cells per well) into 384-well, solid white Greiner assay plates. […] Cells were incubated at 37° C./5% CO2 for 90 minutes and cAMP accumulation subsequently determined by DiscoveRx Hithunter c-AMP II Assay kit (GE Healthcare, Buckinghamshire, UK) in accordance with manufactures instructions. Luminescence was measured on a LEADseaker imaging system (GE Healthcare, Buckinghamshire, UK). IC50 values were calculated from dose-response data fit using an in-house computer graphics and statistics program.

T1 sequence (Q99705 whole entry): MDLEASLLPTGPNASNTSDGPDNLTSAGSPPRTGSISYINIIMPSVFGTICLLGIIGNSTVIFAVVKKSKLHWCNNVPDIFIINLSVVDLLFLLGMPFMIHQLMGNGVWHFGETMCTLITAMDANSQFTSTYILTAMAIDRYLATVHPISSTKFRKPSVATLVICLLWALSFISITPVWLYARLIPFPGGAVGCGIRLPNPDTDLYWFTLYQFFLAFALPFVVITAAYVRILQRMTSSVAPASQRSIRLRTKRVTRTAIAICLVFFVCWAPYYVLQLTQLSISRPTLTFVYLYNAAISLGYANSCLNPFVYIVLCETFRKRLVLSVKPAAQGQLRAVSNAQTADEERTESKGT

CN(C(=O)OC(C)(C)C)[C@H]1CCN(c2ccc(-n3ccc(OCc4ccc(Cl)cc4)cc3=O)cn2)C1 [Example 198]
Ki (read-out: MCHR-1 functional Ki): 10.6 nM

CCC(=O)N1CCN(c2ccc(-n3ccc(OCc4ccccc4)cc3=O)cn2)CC1 [Example 167]
Ki (read-out: MCHR-1 functional Ki): 749 nM

O=c1cc(OCc2ccc(Cl)cc2)ccn1-c1ccc(N2CCC[C@@H](O)C2)nc1 [Example 106]
Ki (read-out: MCHR-1 functional Ki): 65.8 nM

O=c1cc(OCc2ccccc2)ccn1-c1ccc(N2CCC(O)CC2)nc1 [Example 46]
Ki (read-out: MCHR-1 functional Ki): 212 nM

CC(=O)N1CCN(c2ccc(-n3ccc(OCc4ccccc4)cc3=O)cn2)CC1 [Example 1, 6′-(4-Acetylpiperazin-1-yl)-4-(benzyloxy)-2H-1,3′-bipyridin-2-one]
Ki (read-out: MCHR-1 functional Ki): 47.7 nM

CN[C@@H]1CCN(c2ccc(-n3ccc(OCc4ccccc4)cc3=O)nc2)C1 [Example 33, 4-(Benzyloxy)-5′-[(3R)-3-(methylamino)pyrrolidin-1-yl]-2H-1,2′-bipyridin-2-one]
Ki (read-out: MCHR-1 functional Ki): 19.4 nM

CC(=O)N(C)[C@H]1CCN(c2ccc(-n3ccc(OCc4ccc(Cl)cc4)cc3=O)cn2)C1 [Example 173]
Ki (read-out: MCHR-1 functional Ki): 13.1 nM

N[C@@H]1CCN(c2ccc(-n3ccc(OCc4ccccc4)cc3=O)cn2)C1 [Example 54]
Ki (MCHR-1 functional Ki (nM)): 5.91 nM

C[C@@H]1CN(c2ccc(-n3ccc(OCc4ccccc4)cc3=O)cn2)[C@@H](C)CN1 [Example 73]
Ki (read-out: MCHR-1 functional Ki): 517 nM

CC1(N)CCN(c2ccc(-n3ccc(OCc4ccccc4)cc3=O)cn2)C1 (single isomer, unassigned) [Example 17a, 6′-(3-Amino-3-methylpyrrolidin-1-yl)-4-(benzyloxy)-2H-1,3′-bipyridin-2-one]
Ki (read-out: MCHR-1 functional Ki): 15.3 nM

CC(=O)N1CCN(c2ccc(-n3ccc(OCc4ccc(F)cc4)cc3=O)cn2)CC1 [Example 83]
Ki (read-out: MCHR-1 functional Ki): 851 nM

CN(C)C1CN(c2ccc(-n3ccc(OCc4ccccc4)cc3=O)cn2)C1 [Example 239]
Ki (read-out: MCHR-1 functional Ki): 41.2 nM

CC(C)C1CN(c2ccc(-n3ccc(OCc4ccccc4)cc3=O)cn2)CCN1 (stereo not shown) [Example 70]
Ki (read-out: MCHR-1 functional Ki): 102 nM

COC1CCN(c2ccc(-n3ccc(OCc4ccccc4)cc3=O)cn2)CC1 [Example 47]
Ki (read-out: MCHR-1 functional Ki): 57.8 nM

CN[C@H]1CCN(c2ccc(-n3ccc(OCc4ccc(Cl)cc4F)cc3=O)cn2)C1 [Example 153]
Ki (read-out: MCHR-1 functional Ki): 2.02 nM

CN[C@H]1CCN(c2ccc(-n3ccc(OCc4ccccc4Cl)cc3=O)cn2)C1 [Example 151]
Ki (read-out: MCHR-1 functional Ki): 6.04 nM

COC(=O)N(C)[C@H]1CCN(c2ccc(-n3ccc(OCc4ccc(F)cc4)cc3=O)cn2)C1 [Example 180]
Ki (read-out: MCHR-1 functional Ki): 22.2 nM

COC(=O)N[C@H]1CCN(c2ccc(-n3ccc(OCc4ccc(F)cc4)cc3=O)cn2)C1 [Example 186]
Ki (read-out: MCHR-1 functional Ki): 29.8 nM

O=c1cc(OCc2ccc(F)cc2)ccn1-c1ccc(N2CC(O)C2)nc1 [Example 91]
Ki (read-out: MCHR-1 functional Ki): 396 nM

O=c1cc(OCc2ccc(Cl)cc2)ccn1-c1ccc(N2CC[C@@H](O)C2)nc1 [Example 10, 4-[(4-Chlorobenzyl)oxy]-6′-[(3R)-3-hydroxypyrrolidin-1-yl]-2H-1,3′-bipyridin-2-one]
Ki (read-out: MCHR-1 functional Ki): 42.8 nM

CN(C(=O)OC(C)(C)C)[C@H]1CCN(c2ccc(-n3ccc(OCc4ccccc4)cc3=O)cn2)C1 [Example 12, tert-Butyl {(3S)-1-[4-(benzyloxy)-2-oxo-2H-1,3′-bipyridin-6′-yl]pyrrolidin-3-yl}methyl carbamate]
Ki (read-out: MCHR-1 functional Ki): 9.98 nM

O=c1cc(OCc2ccc(F)cc2)ccn1-c1ccc(N2CCC(O)CC2)nc1 [Example 115]
Ki (read-out: MCHR-1 functional Ki): 100 nM

CN1CCN(c2ccc(-n3ccc(OCc4ccccc4)cc3=O)cn2)CC1 [Example 6, 4-(Benzyloxy)-6′-(4-methylpiperazin-1-yl)-2H-1,3′-bipyridin-2-one]
Ki (read-out: MCHR-1 functional Ki): 163 nM

O=c1cc(OCc2ccccc2)ccn1-c1ccc(N2CC[C@H](O)C2)nc1 [Example 16, 4-(benzyloxy)-6′-[(3S)-3-hydroxypyrrolidin-1-yl]-2H-1,3′-bipyridin-2-one]
Ki (read-out: MCHR-1 functional Ki): 133 nM

CN(C)[C@@H]1CCN(c2ccc(-n3ccc(OCc4ccccc4)cc3=O)cn2)C1 [Example 56]
Ki (read-out: MCHR-1 functional Ki): 3.69 nM

O=c1cc(COc2ccc(F)cc2)ccn1-c1ccc(N2CC[C@@H](O)C2)nc1 [Example 93]
Ki (read-out: MCHR-1 functional Ki): 1090 nM

CNC1CCN(c2ccc(-n3ccc(OCc4ccccc4)cc3=O)cn2)CC1 [Example 58]
Ki (read-out: MCHR-1 functional Ki): 28.8 nM

O=c1cc(OCc2ccccc2)ccn1-c1ccc(N2CCNCC2)nc1 [Example 2, 4-(Benzyloxy)-6′-piperazin-1-yl-2H-1,3′-bipyridin-2-one]
Ki (read-out: MCHR-1 functional Ki): 89.9 nM

CN1C[C@@H]2CN(c3ccc(-n4ccc(OCc5ccccc5)cc4=O)cn3)C[C@@H]2C1 [Example 3, 4-(Benzyloxy)-6′-[(3aR,6aS)-5-methylhexahydropyrrolo[3,4-c]pyrrol-2(1H)-yl]-2H-1,3′-bipyridin-2-one]
Ki (read-out: MCHR-1 functional Ki): 10.1 nM

CC1(O)CCN(c2ccc(-n3ccc(OCc4ccccc4)cc3=O)cn2)CC1 [Example 44]
Ki (read-out: MCHR-1 functional Ki): 113 nM

CC(=O)N(C)[C@H]1CCN(c2ccc(-n3ccc(OCc4ccccc4)cc3=O)cn2)C1 [Example 20, N-{(3S)-1-[4-(Benzyloxy)-2-oxo-2H-1,3′-bipyridin-6′-yl]pyrrolidin-3-yl}-N-methylacetamide]
Ki (read-out: MCHR-1 functional Ki): 15.2 nM

COC(=O)N1CCN(c2ccc(-n3ccc(OCc4ccccc4)cc3=O)cn2)CC1 [Example 48]
Ki (read-out: MCHR-1 functional Ki): 705 nM

CC(=O)N[C@H]1CCN(c2ccc(-n3ccc(OCc4ccccc4)cc3=O)cn2)C1 [Example 162]
Ki (read-out: MCHR-1 functional Ki): 30.9 nM

O=c1cc(OCc2ccc(F)c(F)c2)ccn1-c1ccc(N2CC[C@@H](O)C2)nc1 [Example 148]
Ki (read-out: MCHR-1 functional Ki): 125 nM
